Assay: xn = mol fraction of the nth substance listed
Conditions: 101 kPa, Liquid, Vibrating tube method

NCCO [2-aminoethan-1-ol] + C[S+](C)[O-]
Conditions | mass density [kg/m3]
293.15 K, x1 = 0.1002 | 1092.35
293.15 K, x1 = 0.2 | 1084.23
293.15 K, x1 = 0.2999 | 1076.52
293.15 K, x1 = 0.4002 | 1068.58
293.15 K, x1 = 0.5002 | 1060.65
293.15 K, x1 = 0.5999 | 1052.61
293.15 K, x1 = 0.7002 | 1044.32
293.15 K, x1 = 0.8001 | 1035.24
293.15 K, x1 = 0.8998 | 1026.1
293.16 K, x1 = 1 | 1016.34
303.14 K, x1 = 0.2999 | 1066.93
303.14 K, x1 = 1 | 1008.4
303.15 K, x1 = 0.1002 | 1082.48
303.15 K, x1 = 0.4002 | 1059.15
303.15 K, x1 = 0.5002 | 1051.41
303.15 K, x1 = 0.5999 | 1043.58
303.15 K, x1 = 0.7002 | 1035.51
303.15 K, x1 = 0.8001 | 1026.69
303.15 K, x1 = 0.8998 | 1017.83
303.16 K, x1 = 0.2 | 1074.46
313.14 K, x1 = 0.1002 | 1072.61
313.14 K, x1 = 0.2999 | 1057.33
313.14 K, x1 = 1 | 1000.41
313.15 K, x1 = 0.2 | 1064.73
313.15 K, x1 = 0.4002 | 1049.71
313.15 K, x1 = 0.5002 | 1042.15
313.15 K, x1 = 0.5999 | 1034.52
313.15 K, x1 = 0.7002 | 1026.7
313.15 K, x1 = 0.8001 | 1018.12
313.15 K, x1 = 0.8998 | 1009.56
323.14 K, x1 = 0.1002 | 1062.74
323.15 K, x1 = 0.2999 | 1047.72
323.15 K, x1 = 0.4002 | 1040.26
323.15 K, x1 = 0.5002 | 1032.85
323.15 K, x1 = 0.5999 | 1025.42
323.15 K, x1 = 0.7002 | 1017.83
323.15 K, x1 = 0.8001 | 1009.5
323.15 K, x1 = 0.8998 | 1001.23
323.15 K, x1 = 1 | 992.384
323.16 K, x1 = 0.2 | 1054.96
333.14 K, x1 = 0.2999 | 1038.11
333.14 K, x1 = 1 | 984.302
333.15 K, x1 = 0.1002 | 1052.86
333.15 K, x1 = 0.4002 | 1030.78
333.15 K, x1 = 0.5002 | 1023.56
333.15 K, x1 = 0.7002 | 1008.93
333.15 K, x1 = 0.8001 | 1000.84
333.15 K, x1 = 0.8998 | 992.847
333.16 K, x1 = 0.2 | 1045.22
333.16 K, x1 = 0.5999 | 1016.3
343.14 K, x1 = 1 | 976.141
343.15 K, x1 = 0.1002 | 1042.97
343.15 K, x1 = 0.2 | 1035.46
343.15 K, x1 = 0.2999 | 1028.47
343.15 K, x1 = 0.4002 | 1021.28
343.15 K, x1 = 0.5002 | 1014.22
343.15 K, x1 = 0.5999 | 1007.15
343.15 K, x1 = 0.7002 | 999.999
343.15 K, x1 = 0.8001 | 992.114
343.15 K, x1 = 0.8998 | 984.393
353.14 K, x1 = 0.1002 | 1033.05
353.14 K, x1 = 0.2999 | 1018.81
353.14 K, x1 = 0.4002 | 1011.75
353.14 K, x1 = 0.5002 | 1004.84
353.14 K, x1 = 0.7002 | 990.992
353.14 K, x1 = 0.8001 | 983.32
353.14 K, x1 = 0.8998 | 975.863
353.14 K, x1 = 1 | 967.893
353.15 K, x1 = 0.2 | 1025.66
353.15 K, x1 = 0.5999 | 997.944
363.14 K, x1 = 0.1002 | 1023.1
363.14 K, x1 = 0.2 | 1015.84
363.14 K, x1 = 0.5002 | 995.408
363.14 K, x1 = 0.5999 | 988.672
363.14 K, x1 = 0.7002 | 981.91
363.14 K, x1 = 0.8001 | 974.446
363.14 K, x1 = 0.8998 | 967.234
363.15 K, x1 = 0.2999 | 1009.1
363.15 K, x1 = 0.4002 | 1002.17
363.15 K, x1 = 1 | 959.536

Source: the NIST ThermoML archive (doi:10.1016/j.jct.2012.08.021)
